The values below come from patent US10668043B2, “Potentiated antimicrobial agents” (priority 2014, dated 2020).

A value given as a limit tells only on which side of the number the result lay.

In one data set the test system is strains. The data set can be described thus: MIC of cineol alone, strains not named. The data set is classed as cell-based. The conditions noted are these: cineol used alone; strains of the etest example.
For another data set, the system named is Pseudomonas aeruginosa. As to the kind of experiment: MIC measurement in agar solid medium (CLSI). The data set is classed as cell-based. The text has this: (§1) Inhibitory minimum concentration measurement tests are made in a solid agar medium according to international standards in force (CLSI M7-A9 Jan 12 standards): dispersion of the compounds to be tested in a Mueller Hinton gelose. An adaptation relating to the hydrophobicity of compounds and compositions is however necessary to disperse them in the medium: dilution of the compounds in a solvent. The compounds and compositions incorporated in the agar medium can be diluted beforehand in one or more solvents (Tween® 80 diluted with water, tween® 80 diluted with propylene, DMSO diluted with water). The strains are deposited onto the agar surface with a steers apparatus. In the examples, different dissolution methods for products are tested in parallel to circumvent the problems of water/solvent distribution coefficient of the molecules (antimicrobial and potentiator) whereas the bacteria grow only in the aqueous phase. The technical requirement will not intervene in in vivo tests. The same dilution methods can be implemented in a liquid medium (microplates and tubes). The same methodology is implemented with fungi.
MIC measurement: the minimum inhibitory concentration measurement tests are made in an agar solid medium according to international standards in force (CLSI standards), according to the previously defined protocol. The compounds and compositions incorporated in the agar medium can be diluted beforehand in one or more solvents (Tween® 80 diluted with water—3.4 ml Tween for 9.6 ml water—, tween® 80 diluted with propylene 10-3.4 ml Tween for 9.6 ml propylene—, or DMSO diluted with water).
The booster contribution as compared with the MIC of the antibiotic alone is expressed in a (MIC ATB)/(MIC ATB+booster) ratio. Thereby, gains are defined:
MIC 50 gain=(MIC50 of the antibiotic alone)/(MIC50 (antibiotic+booster))
MIC 90 gain=(MIC90 of the antibiotic alone)/(MIC90 (antibiotic+booster))
The tested strains are isolated from various human samples (blood, urine, pulmonary aspirates, etc.). The strains investigated in the following examples are chosen from the strains of the following table: […]

Another data set concerns strain 08150. The data set can be described thus: Post antibiotic effect. The data set is classed as cell-based.
Data set [1] deals with Staphylococcus. The data set can be described thus: Double dilution test. Conditions: strain 8148. The data set is classed as cell-based. From the text:
(§2) The double dilution test is a MIC measurement test made on successive dilutions of the 2 products of the composition. […] The summary table expresses for each strain and for each dilution of the booster the measured antibiotic MIC.
(§3) The code enabling the results to be interpreted is the following one: no sign “^+” if the MIC is equivalent with and without booster, a sign “^+” if the value is lower with booster.

A further data set deals with E. coli. As to the kind of experiment: Double dilution test. The data set is classed as cell-based.
Excerpt: as §2, §3

For data set [2], the system named is microorganisms grown in planktonic and biofilm cultures. The conditions noted are these: Hendry et al, J Antimicrob Chemother 2009; cited from earlier work.
The subject of data set [3] is Staphylococcus. As to the kind of experiment: MIC measurement in agar solid medium (CLSI). The data set is classed as cell-based.
Excerpt: as §1, with “fungi. MIC measurement: the minimum inhibitory concentration measurement tests are made in an agar solid medium according to international standards in force (CLSI standards), according to the previously defined protocol. […] The booster contribution as compared with the MIC of the antibiotic alone is expressed in a (MIC ATB)/(MIC ATB+booster) ratio. Thereby, gains are defined: […] The tested strains are isolated from various human samples (blood, urine, pulmonary aspirates, etc.). The strains investigated in the following examples are chosen from the strains of the following table: [table] […] The MICs are measured on different strains. Then, the MIC gain is calculated on the strains belonging to the same genus. The MIC gain expresses the following ratio: […]” for “fungi.”

Another data set has as its system Escherichia coli. As to the kind of experiment: MIC measurement in agar solid medium (CLSI). The class given is cell-based.
Excerpt: as §1, with “fungi. MIC measurement: the minimum inhibitory concentration measurement tests are made in an agar solid medium according to international standards in force (CLSI standards), according to the previously defined protocol. […] The booster contribution as compared with the MIC of the antibiotic alone is expressed in a (MIC ATB)/(MIC ATB+booster) ratio. Thereby, gains are defined: […] The tested strains are isolated from various human samples (blood, urine, pulmonary aspirates, etc.). The strains investigated in the following examples are chosen from the strains of the following table: [table] […] The MICs are measured on different strains. Then, the MIC gain is calculated on the strains belonging to the same genus. The MIC gain expresses the following ratio: […]” for “fungi.”

A further data set has as its system MRSA. As to the kind of experiment: Sepsis model, in vivo test 2. Further details: species or system CD1 mice. The conditions noted are these: CIN 32 mg/kg without antibiotic; subcutaneous; count at 24 h. As to the method: 200 μL of a bacterial solution (MRSA) adjusted to 5.108 UFC/ml is injected by the intravenous route (retro-orbital route) to CD1 mice. The treatment is initiated 1 h after the bacteria injection by the subcutaneous route.
At 24 h, the mice are euthanized and a bacterial count is made in the kidney.
Controls: untreated group, group receiving 32 mg/kg cineol without antibiotic (CIN), group receiving 8 mg/kg antibiotic without cineol (AMC8). • (*) p<0.05 vs control, AMC8 and CIN • (£) p<0.05 vs control and CIN • ($) p<0.05 vs control, AMC8, CIN, AMC+CIN 128, AMC+CIN 256

Another data set has as its system MRSA 10168. The conditions noted are these: mouse, in vivo.

Experimental for MRSA 10168: To Balb/c mice, is injected (Sc.) the antimicrobial product or the antimicrobial+booster mixture.
At different post-injection times, the mice are euthanised, and blood sampled, heparined and centrifuged to extract plasma thereof
Antibacterial effects are measured after 24 h incubation. The successive dilutions enable the antimicrobial effect to be determined and compared with the MIC. The efficient concentration/MIC ratio is thus determined.

What is called MIC50 is the lowest concentration that inhibits either 50% of growth or 50% of the strains tested, depending on the study. `CC12CCC(CC1)C(C)(C)O2` [Cineol, cineol]: the MIC50 in the data set on strains was above 10000 mg/L. The “MIC 50 of cineol alone” value is on record as 1% with Pseudomonas aeruginosa (DMSO); above 1% with Pseudomonas aeruginosa (Tween/prop glyc); above 1% in the data set on Pseudomonas aeruginosa (Tween/water); above 1% in the data set with Pseudomonas aeruginosa (water/water); above 1% in the data set with Staphylococcus [3] (DMSO); above 1% in the data set on Staphylococcus [3] (Tween/prop glyc). Also, the “MIC 50 of cineol alone” value with Staphylococcus [3] (Tween/water), with Staphylococcus [3] (water/water), in the data set on Escherichia coli (DMSO), in the data set on Escherichia coli (Tween/prop glyc), with Escherichia coli (Tween/water) and with Escherichia coli (water/water) was above 1% in each case. Besides, the “MIC 90 of cineol alone” value in the data set with Pseudomonas aeruginosa (DMSO) was 1%; in the data set on Pseudomonas aeruginosa (Tween/prop glyc), above 1%; in the data set on Pseudomonas aeruginosa (Tween/water), above 1%; in the data set with Pseudomonas aeruginosa (water/water) it was above 1%; in the data set with Staphylococcus [3] (DMSO), above 1%; in the data set with Staphylococcus [3] (Tween/prop glyc), above 1%. Further, the “MIC 90 of cineol alone” value with Staphylococcus [3] (Tween/water), with Staphylococcus [3] (water/water), in the data set with Escherichia coli (DMSO), in the data set on Escherichia coli (Tween/prop glyc), with Escherichia coli (Tween/water) and in the data set on Escherichia coli (water/water) was above 1% throughout. Further, the number of bacteria in the data set on strain 08150 (time 0 h after 16 h contact, Cineol 4 mg/L (AC, where present, at its MIC)) was found to be 2.17E+07; in the data set with strain 08150 (time 0 h after 16 h contact, Cineol 16 mg/L (AC, where present, at its MIC)), 2.20E+07; with strain 08150 (time 1 h after 16 h contact, Cineol 4 mg/L (AC, where present, at its MIC)), 4.92E+07; in the data set on strain 08150 (time 1 h after 16 h contact, Cineol 16 mg/L (AC, where present, at its MIC)) it was 3.88E+07; in the data set on strain 08150 (time 2 h after 16 h contact, Cineol 4 mg/L (AC, where present, at its MIC)), 5.50E+07; with strain 08150 (time 2 h after 16 h contact, Cineol 16 mg/L (AC, where present, at its MIC)), 6.40E+07. Besides, the number of bacteria in the data set on strain 08150 (time 3 h after 16 h contact, Cineol 4 mg/L (AC, where present, at its MIC)) is listed as 3.90E+08; in the data set with strain 08150 (time 3 h after 16 h contact, Cineol 16 mg/L (AC, where present, at its MIC)), 2.70E+08; in the data set with strain 08150 (time 4 h after 16 h contact, Cineol 4 mg/L (AC, where present, at its MIC)), 3.50E+08; with strain 08150 (time 4 h after 16 h contact, Cineol 16 mg/L (AC, where present, at its MIC)) it was 4.20E+08; in the data set on strain 08150 (time 5 h after 16 h contact, Cineol 4 mg/L (AC, where present, at its MIC)) it was 5.90E+08; with strain 08150 (time 5 h after 16 h contact, Cineol 16 mg/L (AC, where present, at its MIC)), 5.50E+08. The number of bacteria in the data set with strain 08150 (time 6 h after 16 h contact, Cineol 4 mg/L (AC, where present, at its MIC)) came out at 6.00E+08; in the data set with strain 08150 (time 6 h after 16 h contact, Cineol 16 mg/L (AC, where present, at its MIC)), 5.90E+08. In addition, the MIC of cineol alone with Staphylococcus [1], in the data set on E. coli (strain 8137), in the data set with E. coli (strain 8151), with E. coli (strain 8155), with E. coli (strain 8156) and in the data set on E. coli (strain ATCC 25922) was above 2.5 mg/L throughout. Also, the MIC of cineole in data set [2] was 8000 to 64000 mg/L. In the data set with MRSA, the “Mean ± SD log10 UFC/g kidney” value is on record as 6.35 ± 0.29 log10 UFC/g kidney.

For “amoxicillin/clavulanic acid [Augmentin®]”, the “Time spent beyond the MIC” value in the data set with MRSA 10168 was below 4 h.
